The numbers were not newly measured in article PMC12300650, “Development and Characterization of a New Oral Antileishmanial Bis(pyridine-2-Carboxamidine) Drug Through Innovative Dissolution Testing in Biorelevant Media Combined with Pharmacokinetic Studies” (Pharmaceutics, 2025), which cites them from elsewhere.

Where [1] appears, read: FaSSIF pH 6.5, ref Higashino et al., 2023 [23].
Where [2] appears, read: Two state FaSSGF to FaSSIF, ref Arnold et al., 2011 [22].
Setting [3] is: FaSSIF pH 6.8, ref Naing et al., 2024 [24].

Molecules are shown by their SMILES. Like-named read-outs stand apart in the source and are kept apart here.

With `CC(=O)N1CCN(c2ccc(OCC3COC(Cn4ccnc4)(c4ccc(Cl)cc4Cl)O3)cc2)CC1` (centres unmarked) [Ketoconazole], under setting [1], the Precipitation time is 30 to 60 min and the “Supersaturation Time” value is recorded as 30 min.

Regarding `OCCN(CCO)c1nc(N2CCCCC2)c2nc(N(CCO)CCO)nc(N3CCCCC3)c2n1` [Dipyridamole], under setting [1], the Precipitation time is 60 to 120 min and the “Supersaturation Time” value is 30 min. For the same compound, under setting [2], the Precipitation time was 20 to 180 min and the “Supersaturation Time” value is 20 min.

In the case of `CC(C)c1nc(CN(C)C(=O)N[C@H](C(=O)N[C@@H](Cc2ccccc2)C[C@H](O)[C@H](Cc2ccccc2)NC(=O)OCc2cncs2)C(C)C)cs1` [Ritonavir], under setting [3], the Precipitation time is 30 to 60 min and the “Supersaturation Time” value is reported as 30 min.
